Measurements: patent US7648966B2, “Mannose-6-phosphonate compounds for the treatment of inflammatory diseases” (Pharmaxis Pty Limited, priority 2003, dated 2010)

Key:
[1] = system: MBP-specific T lymphocyte cell lines migrating across rat brain endothelial cell monolayer; assay: Inhibition of T-lymphocyte migration across rat brain endothelial cell layer (Transwell, 51Cr-labeled cells); type: cell-based, Lewis rats; settings: 6 hours
Method: Preparation of Brain Endothelial Cells (ECs)
Vascular ECs were isolated from rat brain capillaries of 6 to 8 week old Lewis rats according to the method of Risau, W et al., 1990, J. Cell Biol. 110:1757-1766 (which is incorporated herein by reference). Colonies of ECs were purified from astroglial cells and pericytes using anti-Thy1.1-antibody and complement-mediated lysis to remove unwanted Thy1.1+ cells.
The EC colonies were grown, using conventional methods, in Dulbecco's Modified Eagle's Medium (DMEM)-high glucose, supplemented, with 20% fetal calf serum (FCS), glutamine, pyruvate, nonessential amino acids, HEPES buffer and antibiotics (kanamycin, amphotericin), and heparin (all from GIBCO). Cultures were supplemented with 150 μg/ml “endothelial growth supplement” from Collaborative Biomedical Products. Upon reaching confluence, EC cultures were washed with 0.2% EDTA in phosphate buffered saline (PBS), trypsinized (Trypsin-EDTA, 0.1% final concentration), washed and re-treated with anti-Thy1.1 antibody for 40 min, washed and incubated with complement sufficient to lyse all Thy1.1+ cells (Behringwerke, AG, Marburg, Germany) at room temperature.
ECs were then plated on Matrigel®-coated 6.5 mm Transwells, […] (Corning Costar Corporation, Cambridge, Mass.). Presence of ECs and confluence of the monolayer were checked by measuring the electrical resistance (World Precision Instruments, New Haven, U.S.A., model EVOM-G) and by staining with FITC-labeled phalloidin (Sigma).
Myelin Basic Protein (MBP)-Specific T Cell Lines
To study the effect of agents of the present invention on T lymphocyte migration, MBP-specific T lymphocyte cell lines were generated according to the method of Ben-Nun et al., Europ. J. Immunol. 11:195-199 (1981); incorporated herein by reference) starting with lymphocytes from the LNs of Lewis rats that had been immunized with MBP in complete Freund's adjuvant (CFA). These cells were used for migration studies during the first 4 days of their propagation in IL-2-containing medium, following MBP restimulation in the presence of antigen-presenting cells (irradiated spleen or thymus cells from normal Lewis rats).
These stimulated T lymphocytes were radiolabeled with ^51Cr (Na^51Cr04, 37 MBq/ml, Amersham, UK) for 30 minutes at 37° C. with occasional agitation, they were then washed three times with DMEM and placed into the upper chamber of the Transwells at 5×10^5 cells in 100 μl of “migration medium.” Test and control substance were included in the upper wells at final concentrations of 0.1, 1 and 10 mM. Cell migration was assessed visually by light microscopy to gauge progress of the experiment. The experiment was terminated after 6 hours, whereupon the undersurface of the membrane filters were rinsed twice with 100 μl of ice-cold PBS-0.2% EDTA and combined with the medium of the lower chamber of the well. The combined material was counted for radioactivity in a gamma counter (Packard Auto-Gamma 5650 (Downer's Grove Ill., USA) gamma counter. Each “treatment” group was run in triplicate (test agent, control agent (glucose 6-phosphate) and no treatment).
Inhibition values are in comparison with the negative control.

[2] = system: 51Cr-labeled T lymphocyte migration into the spleen; assay: Inhibition of lymphocyte migration into lymphoid tissue (spleen) in vivo; design: species or system Balb/c mice; settings: 5 mg per mouse iv with labeled cells; spleens removed 1.5 hours after injection; vs negative controls
Method: Lymphocytes were obtained from spleens of 6-8 week old female specific pathogen-free Balb/c mice (19-21 g). Single cell suspensions prepared by conventional means (pushing through a stainless steel screen). Red blood cells were lysed by treating with a solution of bicarbonate buffered ammonium chloride-EDTA (pH 7.3) and the preparation strained through a Falcon 2350 cell strainer. All cell preparative steps were performed on ice. Cell were suspended in a conventional lymphocyte culture medium (DMEM plus glucose, folic acid, L-asparagine, sodium bicarbonate, L-glutamine, sodium pyruvate, HEPES, 2-mercaptoethanol, penicillin, streptomycin, neomycin, and 2% FCS).
B lymphocytes were depleted by suspending the cells in purified rat anti-mouse CD45/B220 antibody (RA3-6B2 clone; PharMingen, USA) at a concentration of 4×10^7 cells/ml and incubated on ice for 20 minutes. An equal volume of culture medium (as above) was added and the cells centrifuged (200×g) and resuspended at a concentration of 10^7 cells/ml in BioMag goat ant-rat IgG (H&L) (“GARIG”) conjugated to magnetic beads (Bio Mag; Perseptive Diagnostics, Polysciences, Inc., USA). Following a 20 minute incubation on ice, with agitation every 5 minutes, cells binding to the GARIG/anti-CD45/B220 antibody complex were removed using magnetic separation (Dynal MPC-6, Dynal, USA). This procedure was repeated 4 times, resulting in a cell population containing approximately 80-90% T lymphocytes (determined by FACS analysis).
The cells were then washed in Hanks balanced salt solution (HBSS), resuspended in 5 ml of HBSS, and radiolabeled with ^51Cr for 30 minutes at 37° C. (as described above). The labeled cells were washed in PBS, centrifuged (200×g), and a portion were resuspended at a concentration of 3×10^7 cells/ml in either PBS (negative control) or PBS containing phenyl mannoside 6-phosphate (25 mg/ml in PBS; positive control) or PBS containing the test compound (25 mg/ml), and stored on ice. Cell viability was confirmed throughout the procedures by trypan blue exclusion. Balb/c mice were injected intravenously (iv) into the lateral tail vein with 0.2 ml containing 6×10^6 labeled lymphocytes and 0.2 ml of either PBS (negative control), 5 mg positive control or 5 mg test compound. All groups of mice were weight matched (±0.5 g).
Spleens from recipient mice were removed 1.5 hours after injection, and the cell-associated radioactivity was determined using a gamma counter (as above). Results of inhibition of lymphocyte migration into the spleen were expressed as a percentage reduction in the CPM of the spleens from treated animals compared with negative controls.
The phosphono-mannoside compounds of the present invention and their relative inhibition of lymphocyte migration in vivo (compared to negative controls) are presented in Table 2.

[3] = Tested for pharmaceutical effectiveness (test not specified)
Method: In a similar manner to the foregoing procedure and using the appropriate reagents, the following compounds were prepared.

[4] = 10 mM in upper well, compared with negative control

| Molecule | % inhibition (±SEM) of T cell migration [1, 4] [%] | % Inhibition of lymphocyte migration into spleens [2] [%] | pharmaceutical effectiveness as defined herein [3] | inhibition at 10000 µM ([1]; Rattus norvegicus, T-cell, 10 mM in upper well, compared with negative control, read-out: % inhibition (±SEM) of T cell migration) [%] | migration value compared with no treatment ([1]; control agent) |
| --- | --- | --- | --- | --- | --- |
| 1-(2-methyl,4-chlorophenyl)-6-phosphono-mannoside | 65 ± 4 | 45.0 |  |  |  |
| 1-(2-methyl,4-fluorophenyl)-6-phosphonomannoside | 53 ± 2 | 68.0 |  |  |  |
| 1-(2,4,6-trimethylphenyl)-6-phosphono-manoside | 80 ± 4 | 85.5 |  |  |  |
| 1-(2-methyl,4-trifluoromethyl)-6-phosphonomannoside | 88 ± 3 | 87.3 | pharmaceutically effective |  |  |
| O=C[C@H](O)[C@@H](O)[C@H](O)[C@H](O)COP(=O)(O)O [glucose-6-phosphate, reference compound] |  |  |  | 0 | not statistically different from no treatment |
| O=P(O)(O)OC[C@H]1OC(Oc2ccccc2)[C@@H](O)[C@@H](O)[C@@H]1O (stereo partly drawn) [positive control compound, phenyl mannoside 6-phosphate, reference compound] |  | 70.5 |  |  |  |
